Assay results taken from patent US20170239249A1, “QUINAZOLINE-BASED KINASE INHIBITORS” (Bristol-Myers Squibb Company, priority 2014, published 2017).

Target: AAK1 (full length human) (Homo sapiens, UniProt Q2M2I8)
Assay: HEK281 Cell-Based Assay (phospho-mu2 Western blot in HEK293F cells transfected with AAK1 and AP2M1)
Conditions: IC50 (nM), functional potency; inhibition of mu2 phosphorylation in HEK293F cells, 3 hours incubation, 5 concentrations

AAK1 (full length human), sequence (Q2M2I8 1-863 isoform Q2M2I8-2): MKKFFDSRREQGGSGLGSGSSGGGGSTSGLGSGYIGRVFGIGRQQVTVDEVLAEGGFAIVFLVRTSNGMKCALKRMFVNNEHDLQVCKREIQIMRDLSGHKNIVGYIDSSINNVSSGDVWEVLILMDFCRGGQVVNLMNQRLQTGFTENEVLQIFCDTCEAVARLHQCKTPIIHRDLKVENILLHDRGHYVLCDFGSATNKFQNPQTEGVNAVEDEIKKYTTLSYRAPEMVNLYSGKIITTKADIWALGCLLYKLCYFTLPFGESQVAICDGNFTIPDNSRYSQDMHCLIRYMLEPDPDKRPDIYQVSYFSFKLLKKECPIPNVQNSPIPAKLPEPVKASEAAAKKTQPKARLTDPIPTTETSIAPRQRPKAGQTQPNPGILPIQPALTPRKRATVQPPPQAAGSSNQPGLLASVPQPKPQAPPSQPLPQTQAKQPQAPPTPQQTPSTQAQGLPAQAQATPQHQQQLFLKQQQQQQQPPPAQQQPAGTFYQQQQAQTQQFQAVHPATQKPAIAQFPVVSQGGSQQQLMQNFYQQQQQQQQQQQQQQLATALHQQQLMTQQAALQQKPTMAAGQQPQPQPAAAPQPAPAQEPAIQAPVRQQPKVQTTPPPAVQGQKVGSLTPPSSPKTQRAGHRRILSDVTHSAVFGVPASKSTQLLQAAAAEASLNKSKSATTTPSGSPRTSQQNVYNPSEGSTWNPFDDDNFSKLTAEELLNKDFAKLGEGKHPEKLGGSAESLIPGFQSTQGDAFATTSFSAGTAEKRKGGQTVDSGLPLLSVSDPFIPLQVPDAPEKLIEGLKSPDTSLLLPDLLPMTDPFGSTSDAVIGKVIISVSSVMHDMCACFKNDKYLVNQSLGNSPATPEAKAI

Row | SMILES | IC50 [nM]
1 | CCc1nc(C(N)C2CCCCC2)nc2ccc(-c3ccncc3)cc12 (single isomer, unassigned; (+)) [Example 8, (+)-Cyclohexyl(4-ethyl-6-(pyridin-4-yl)quinazolin-2-yl)methanamine] | 61
2 | CCc1nc(C(N)C2CCCCC2)nc2ccc(-c3ccncc3)cc12 (single isomer, unassigned; (-)) [Example 7, (−)-Cyclohexyl(4-ethyl-6-(pyridin-4-yl)quinazolin-2-yl)methanamine] | 8
3 | CC(C)CC(N)c1ncc2cc(-c3cnco3)ccc2n1 (stereo not shown) [Example 1, 3-Methyl-1-(6-(oxazol-5-yl)quinazolin-2-yl)butan-1-amine] | 420
4 | Cc1nc(C(N)CC(C)C)nc2ccc(-c3cnco3)cc12 (stereo not shown) [Example 2, 3-Methyl-1-(4-methyl-6-(oxazol-5-yl)quinazolin-2-yl)butan-1-amine] | 170
5 | CCc1nc(C(N)CC(C)C)nc2ccc(-c3cnco3)cc12 (stereo not shown) [Example 3, 1-(4-Ethyl-6-(oxazol-5-yl)quinazolin-2-yl)-3-methylbutan-1-amine] | 77
6 | CCc1nc(C(N)CC(C)C)nc2c(OC)cc(-c3cnco3)cc12 (stereo not shown) [Example 5, 1-(4-Ethyl-8-methoxy-6-(oxazol-5-yl)quinazolin-2-yl)-3-methylbutan-1-amine] | 75
7 | CCc1nc(C(N)CC2CCCCC2)nc2ccc(-c3ccncc3)cc12 (stereo not shown) [Example 9, 2-Cyclohexyl-1-(4-ethyl-6-(pyridin-4-yl)quinazolin-2-yl)ethanamine] | 260
8 | CCc1nc(CCC2CCCC2)nc2ccc(-c3ccncc3)cc12 [Example 10, 2-(2-Cyclopentylethyl)-4-ethyl-6-(pyridin-4-yl)quinazoline] | 4800
9 | COc1c(-c2cnco2)ccc2nc(C(N)CC(C)C)ncc12 (stereo not shown) [Example 11, 1-(5-Methoxy-6-(oxazol-5-yl)quinazolin-2-yl)-3-methylbutan-1-amine] | 360
10 | CC(C)CC(N)c1nc2ccc(-c3ccncc3)cc2c(=O)[nH]1 (stereo not shown) [Example 13, 2-(1-Amino-3-methylbutyl)-6-(pyridin-4-yl)quinazolin-4-ol] | 93
11 | CCOc1nc(C(N)CC(C)C)nc2ccc(-c3cnco3)cc12 (stereo not shown) [Example 15, 1-(4-Ethoxy-6-(oxazol-5-yl)quinazolin-2-yl)-3-methylbutan-1-amine] | 410
12 | CC(C)CC(N)c1nc(N(C)C)c2cc(-c3cnco3)ccc2n1 (stereo not shown) [Example 17, 2-(1-Amino-3-methylbut)-N,N-dimethyl-6-(oxazol-5-yl)quinazolin-4-amine] | 360
13 | CC(C)CC(N)c1nc(N2CCCC2)c2cc(-c3cnco3)ccc2n1 (stereo not shown) [Example 19, 3-Methyl-1-(6-(oxazol-5-yl)-4-(pyrrolidin-1-yl)quinazolin-2-yl)butan-1-amine] | 760
14 | CCNc1nc(C(N)CC(C)C)nc2ccc(-c3cnco3)cc12 (stereo not shown) [Example 20, 2-(1-Amino-3-methylbutyl)-N-ethyl-6-(oxazol-5-yl)quinazolin-4-amine] | 850
15 | COCCNc1nc(C(N)CC(C)C)nc2ccc(-c3cnco3)cc12 (stereo not shown) [Example 22, 2-(1-Amino-3-methylbutyl)-N-(2-methoxyethyl)-6-(oxazol-5-yl)quinazolin-4-amine] | 1300
16 | CNc1nc(C(N)CC(C)C)nc2ccc(-c3ccncc3)cc12 (stereo not shown) [Example 23, 2-(1-Amino-3-methylbutyl)-N-methyl-6-(pyridin-4-yl)quinazolin-4-amine] | 79
17 | CCNc1nc(C(N)CC(C)C)nc2ccc(-c3ccncc3)cc12 (stereo not shown) [Example 24, 2-(1-Amino-3-methylbutyl)-N-ethyl-6-(pyridin-4-yl)quinazolin-4-amine] | 86
18 | CCN(CC)c1nc(C(N)CC(C)C)nc2ccc(-c3ccncc3)cc12 (stereo not shown) [Example 25, 2-(1-Amino-3-methylbutyl)-N,N-diethyl-6-(pyridin-4-yl)quinazolin-4-amine] | 22
19 | COc1cnccc1-c1ccc2nc(C(N)CC(C)C)nc(N(C)C)c2c1 (stereo not shown) [Example 26, 2-(1-Amino-3-methylbutyl)-6-(3-methoxypyridin-4-yl)-N,N-dimethylquinazolin-4-amine] | 31
20 | CCNc1nc(C(N)CC(C)C)nc2ccc(-c3ccncc3OC)cc12 (stereo not shown) [Example 28, 2-(1-Amino-3-methylbutyl)-N-ethyl-6-(3-methoxypyridin-4-yl)quinazolin-4-amine] | 380
21 | CC(C)CC(N)c1nc(C#N)c2cc(-c3cnco3)ccc2n1 (stereo not shown) [Example 30, 2-(1-Amino-3-methylbutyl)-6-(oxazol-5-yl)quinazoline-4-carbonitrile] | 17
22 | CC(C)CCc1nc(C#N)c2cc(-c3cnco3)ccc2n1 [Example 31, 2-Isopentyl-6-(oxazol-5-yl)quinazoline-4-carbonitrile] | 640
23 | COc1cc2nc(C(N)CC(C)C)nc(C#N)c2cc1-c1cnco1 (stereo not shown) [Example 32, 2-(1-Amino-3-methylbutyl)-7-methoxy-6-(oxazol-5-yl)quinazoline-4-carbonitrile] | 6

Continued by falling IC50, values first:

Row | IC50 [nM] | SMILES
24 | 5300 | CCCc1nc(C(N)CC(C)C)nc2ccc(-c3cnco3)cc12 (stereo not shown) [Example 4, 3-Methyl-1-(6-(oxazol-5-yl)-4-propylquinazolin-2-yl)butan-1-amine]
25 | 1200 | CC(C)CC(N)c1nc(NCCO)c2cc(-c3cnco3)ccc2n1 (stereo not shown) [Example 21, 2-((2-(1-Amino-3-methylbutyl)-6-(oxazol-5-yl)quinazolin-4-yl)amino)ethanol]
26 | 230 | COc1nc(C(N)CC(C)C)nc2ccc(-c3cnco3)cc12 (stereo not shown) [Example 14, 1-(4-Methoxy-6-(oxazol-5-yl)quinazolin-2-yl)-3-methylbutan-1-amine]
27 | 210 | CNc1nc(C(N)CC(C)C)nc2ccc(-c3cnco3)cc12 (stereo not shown) [Example 16, 2-(1-Amino-3-methylbutyl)-N-methyl-6-(oxazol-5-yl)quinazolin-4-amine]
28 | 140 | CC(C)CC(N)c1nc2ccc(-c3cnco3)cc2c(=O)[nH]1 (stereo not shown) [Example 12, 2-(1-Amino-3-methylbutyl)-6-(oxazol-5-yl)quinazolin-4-ol]
29 | 130 | CCN(CC)c1nc(C(N)CC(C)C)nc2ccc(-c3cnco3)cc12 (stereo not shown) [Example 18, 2-(1-Amino-3-methylbutyl)-N,N-diethyl-6-(oxazol-5-yl)quinazolin-4-amine]
30 | 87 | CCc1nc(C(N)CC(C)C)nc2cc(OC)c(-c3cnco3)cc12 (single isomer, unassigned; enantiomer 1) [Example 86, 1-(4-Ethyl-7-methoxy-6-(oxazol-5-yl)quinazolin-2-yl)-3-methylbutan-1-amine (Enantiomer 1)]
31 | 54 | COc1cnccc1-c1ccc2nc(CCC(C)C)nc(N(C)C)c2c1 [Example 29, 2-Isopentyl-6-(3-methoxypyridin-4-yl)-N,N-dimethylquinazolin-4-amine]
32 | 36 | CCc1nc(C(N)CC(C)C)nc2ccc(-c3ccncc3OC)cc12 (stereo not shown) [Example 6, 1-(4-Ethyl-6-(3-methoxypyridin-4-yl)quinazolin-2-yl)-3-methylbutan-1-amine]
33 | 20 | CCN(CC)c1nc(C(N)CC(C)C)nc2ccc(-c3ccncc3OC)cc12 (stereo not shown) [Example 27, 2-(1-Amino-3-methylbutyl)-N,N-diethyl-6-(3-methoxypyridin-4-yl)quinazolin-4-amine]
34 | 13 | CCc1nc(C(N)CC(C)C)nc2cc(OC)c(-c3cnco3)cc12 (single isomer, unassigned; enantiomer 2) [Example 87, 1-(4-Ethyl-7-methoxy-6-(oxazol-5-yl)quinazolin-2-yl)-3-methylbutan-1-amine (Enantiomer 2)]
